{"source": "patent US9512065B2", "about": "“Polymorphs of N-[(R)-1-[(S)-1-(4-aminomethyl-benzylcarbamoyl)-2-phenyl-ethylcarbamoyl]-2-(4-ethoxy-phenyl)-ethyl]-benzamide hydrochloride” (Kalvista Pharmaceuticals Limited, priority 2012, dated 2016)", "key": {"[1]": {"system": "diabetic rats", "settings": "cited from earlier work"}, "[2]": {"target": "Human plasma kallikrein (Homo sapiens (Human), UniProt P03952)", "sequence (P03952 391-638)": "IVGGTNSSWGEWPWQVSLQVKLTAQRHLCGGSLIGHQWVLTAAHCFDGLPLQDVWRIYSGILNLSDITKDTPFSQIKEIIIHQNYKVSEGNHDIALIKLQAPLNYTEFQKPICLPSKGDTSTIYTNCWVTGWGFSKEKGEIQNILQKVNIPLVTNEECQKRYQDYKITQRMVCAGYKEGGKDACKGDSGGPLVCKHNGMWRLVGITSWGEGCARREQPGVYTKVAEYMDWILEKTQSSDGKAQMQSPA", "sequence (P03952 20-390 partner)": "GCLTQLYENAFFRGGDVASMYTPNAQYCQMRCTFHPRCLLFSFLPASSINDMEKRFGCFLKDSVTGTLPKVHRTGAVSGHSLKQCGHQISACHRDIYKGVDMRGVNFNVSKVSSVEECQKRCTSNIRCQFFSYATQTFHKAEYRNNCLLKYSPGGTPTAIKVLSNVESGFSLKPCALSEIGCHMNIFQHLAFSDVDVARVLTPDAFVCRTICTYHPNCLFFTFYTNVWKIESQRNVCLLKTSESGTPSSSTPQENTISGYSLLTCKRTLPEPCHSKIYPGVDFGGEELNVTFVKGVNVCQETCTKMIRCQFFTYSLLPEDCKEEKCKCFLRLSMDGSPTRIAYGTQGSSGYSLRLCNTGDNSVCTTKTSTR", "test": "Determination of the Ki for plasma kallikrein", "format": "biochemical", "settings": "37° C., fluorogenic substrate H-DPro-Phe-Arg-AFC; read-out: Ki (human Pkal)", "procedure": "Determination of the Ki for Plasma Kallikrein\nPlasma kallikrein inhibitory activity in vitro was determined using standard published methods (see e.g. Johansen et al., Int. J. Tiss. Reac. 1986, 8, 185; Shori et al., Biochem. Pharmacol., 1992, 43, 1209; Stürzebecher et al., Biol. Chem. Hoppe-Seyler, 1992, 373, 1025). Human plasma kallikrein (Protogen) was incubated at 37° C. with the fluorogenic substrate H-DPro-Phe-Arg-AFC and various concentrations of the test compound. Residual enzyme activity (initial rate of reaction) was determined by measuring the change in […] at 410 nm and the Ki value for the test compound was determined."}, "[3]": {"target": "Human KLK1 (Homo sapiens (Human), UniProt P06870)", "sequence (P06870 25-262)": "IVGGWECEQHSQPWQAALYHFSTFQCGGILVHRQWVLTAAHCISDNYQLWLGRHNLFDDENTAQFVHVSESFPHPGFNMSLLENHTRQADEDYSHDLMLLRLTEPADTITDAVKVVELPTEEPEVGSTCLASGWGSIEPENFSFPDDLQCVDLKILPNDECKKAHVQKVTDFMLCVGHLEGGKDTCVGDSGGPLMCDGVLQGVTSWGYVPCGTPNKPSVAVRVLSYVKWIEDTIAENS", "test": "Determination of the IC50 for KLK1", "format": "biochemical", "settings": "37° C., fluorogenic substrate H-DVal-Leu-Arg-AFC", "procedure": "Determination of the IC50 for KLK1\nHuman KLK1 (Callbiochem) was incubated at 37° C. with the fluorogenic substrate H-DVal-Leu-Arg-AFC and various concentrations of the test compound. Residual enzyme activity (initial rate of reaction) was determined by measuring the change in optical absorbance at 410 nm and the IC50 value for the test compound was determined."}, "[4]": {"test": "Gravimetric vapour sorption (GVS)", "format": "physicochemical", "procedure": "Gravimetric Vapour Sorption\nSorption isotherms were obtained using a Hiden Isochema moisture sorption analyser (model IGAsorp), controlled by IGAsorp Systems Software V6.50.48. The sample was maintained at a constant temperature (25° C.) by the instrument controls. The humidity was controlled by mixing streams of dry and wet nitrogen, with a total flow of 250 ml·min-1. The instrument was verified for relative humidity content by measuring three calibrated Rotronic salt solutions (10-50-88%). The weight change of the sample was monitored as a function of humidity by a microbalance (accuracy +/−0.005 mg). A defined amount of sample was placed in a tared mesh stainless steel basket under ambient conditions. A full experimental cycle consisted of three scans (sorption, desorption and sorption) at a constant temperature (25° C.) and 10% RH intervals over a 0-90% range (60 minutes for each humidity level)."}, "[5]": {"test": "Storage stability at 40° C. and 75% relative humidity for 6 months", "format": "physicochemical", "description": "Further evidence of the suitability of the crystalline forms for pharmaceutical development is provided by the following stability data."}, "[6]": {"target": "thrombin (Homo sapiens (Human), UniProt P00734)", "test": "Determination of enzyme selectivity: thrombin", "format": "biochemical", "settings": "substrate at Km concentration", "description": "(§1) Determination of Enzyme Selectivity"}, "[7]": {"target": "Factor Xa (Homo sapiens (Human), UniProt P00742)", "sequence (P00742 235-488)": "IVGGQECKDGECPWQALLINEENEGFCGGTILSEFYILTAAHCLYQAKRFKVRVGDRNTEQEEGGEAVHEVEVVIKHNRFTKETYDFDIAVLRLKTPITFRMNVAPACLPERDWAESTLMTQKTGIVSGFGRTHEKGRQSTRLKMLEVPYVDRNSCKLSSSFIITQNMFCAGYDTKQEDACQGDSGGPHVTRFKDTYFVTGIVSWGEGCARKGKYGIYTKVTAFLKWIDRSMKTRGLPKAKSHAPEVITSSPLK", "sequence (P00742 41-179 partner)": "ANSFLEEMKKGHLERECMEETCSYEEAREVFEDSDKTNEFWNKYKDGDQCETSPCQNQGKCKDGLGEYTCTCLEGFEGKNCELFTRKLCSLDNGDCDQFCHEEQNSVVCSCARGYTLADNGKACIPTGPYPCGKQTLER", "test": "Determination of enzyme selectivity: Factor Xa", "format": "biochemical", "settings": "substrate at Km concentration", "description": "as §1"}, "[8]": {"target": "Factor XIIa (Homo sapiens (Human), UniProt P00748)", "sequence (P00748 373-615)": "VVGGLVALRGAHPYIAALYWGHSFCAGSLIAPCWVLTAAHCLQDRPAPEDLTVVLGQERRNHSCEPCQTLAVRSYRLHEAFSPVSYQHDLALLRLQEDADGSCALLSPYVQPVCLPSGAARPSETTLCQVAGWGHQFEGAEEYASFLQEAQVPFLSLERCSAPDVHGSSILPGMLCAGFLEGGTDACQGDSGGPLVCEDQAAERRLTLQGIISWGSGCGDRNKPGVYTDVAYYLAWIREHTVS", "test": "Determination of enzyme selectivity: Factor XIIa", "format": "biochemical", "settings": "substrate at Km concentration", "description": "as §1"}, "[9]": {"system": "CA-I stimulated RVP in Sprague Dawley rats", "test": "Carbonic anhydrase I induced retinal vascular permeability model", "format": "in vivo", "settings": "rat", "procedure": "Carbonic Anhydrase I Induced Retinal Vascular Permeability Model\nAfter 30 mins, a second intravitreal injection (5 μL) of PBS or CA-I (200 ng/eye) was given. After 15 minutes, 10% sodium fluorescein was infused and retinal vascular permeability (RVP) was measured by vitreous fluorophotometry 75 minutes following the initial IVT injections. […] Intravitreal injection of N—[(R)-1-[(S)-1-(4-amino methyl-benzylcarbamoyl)-2-phenyl-ethylcarbamoyl]-2-(4-ethoxy-phenyl)-ethyl]-benzamide hydrochloride reduced RVP (stimulated by CA-I injection) by 53±21%."}, "[10]": {"test": "Ocular and systemic pharmacokinetics following a single IVT dose", "format": "in vivo, rabbit", "settings": "Dutch-belted rabbits", "procedure": "A pharmacokinetic study of N—[(R)-1-[(S)-1-(4-aminomethyl-benzylcarbamoyl)-2-phenyl-ethylcarbamoyl]-2-(4-ethoxy-phenyl)-ethyl]-benzamide hydrochloride was performed to assess the ocular and systemic pharmacokinetics following a single IVT dose in pigmented (Dutch-belted) rabbits. […] Serial blood samples were collected in surviving rabbits."}}, "note": "Where a name gives a salt, the structure may show the parent alone.", "data": [{"smiles": "N=C(N)c1ccc(CNC(=O)c2cnn(Cc3ccccc3)c2)cc1", "note": "[ASP-440]", "values": [{"measurement": "retinal vascular permeability and retinal blood flow abnormalities", "setting": "[1]", "value": "ameliorated"}]}, {"smiles": "CCOc1ccc(C[C@@H](NC(=O)c2ccccc2)C(=O)N[C@@H](Cc2ccccc2)C(=O)NCc2ccc(CN)cc2)cc1", "note": "[Form 1, N—[(R)-1-[(S)-1-(4-aminomethyl-benzylcarbamoyl)-2-phenyl-ethylcarbamoyl]-2-(4-ethoxy-phenyl)-ethyl]-benzamide hydrochloride]", "values": [{"measurement": "Ki", "setting": "[2]", "value": 0.01, "unit": "µM"}, {"measurement": "IC50", "setting": "[3]", "value": "> 10", "unit": "µM"}, {"measurement": "hydration (GVS)", "setting": "[4]; 25° C., sorption, desorption and sorption, 0-90% RH", "value": "reversible"}, {"measurement": "hygroscopicity", "setting": "[4]; GVS data", "value": "absence of significant hygroscopicity"}, {"measurement": "increase in water content (GVS)", "setting": "[4]; normal conditions, 20% to 80% relative humidity", "value": "only a relatively gradual increase"}, {"measurement": "chemical degradation on storage", "setting": "[5]; 6 months", "value": "no significant chemical degradation"}, {"measurement": "purity (HPLC) on storage", "setting": "[5]; 6 months", "value": 99.8, "unit": "% area"}, {"measurement": "change to the XRPD diffractogram on storage", "setting": "[5]; 6 months, double polyethylene bags in polypropylene container", "value": "no change"}, {"measurement": "water content (Karl Fischer) on storage", "setting": "[5]; after one month and thereafter up to 6 months", "value": "2.5%-2.8%"}]}, {"smiles": "CCOc1ccc(C[C@@H](NC(=O)c2ccccc2)C(=O)N[C@@H](Cc2ccccc2)C(=O)NCc2ccc(CN)cc2)cc1", "note": "[N—[(R)-1-[(S)-1-(4-aminomethyl-benzylcarbamoyl)-2-phenyl-ethylcarbamoyl]-2-(4-ethoxy-phenyl)-ethyl]-benzamide hydrochloride]", "values": [{"measurement": "IC50", "setting": "[6]", "value": "> 40", "unit": "µM"}, {"measurement": "IC50", "setting": "[7]", "value": "> 10", "unit": "µM"}, {"measurement": "IC50", "setting": "[8]", "value": "> 10", "unit": "µM"}, {"measurement": "reduction of RVP stimulated by CA-I injection", "setting": "[9]; intravitreal injection 5 μL of 1 μM, CA-I 200 ng/eye after 30 mins", "value": "53±21", "unit": "%"}, {"measurement": "basal RVP", "setting": "[9]; intravitreal injection of 1 μM alone (no CA-I), no effect compared to PBS alone, vitreous fluorophotometry at 75 minutes", "value": "3.29±0.21"}, {"measurement": "decline in ocular tissue concentrations", "setting": "[10]; single IVT 210 ng per eye, vitreous, retina/choroid, aqueous humour, over 7 days", "value": "minimal"}, {"measurement": "plasma concentrations following IVT administration", "setting": "[10]; single bilateral IVT 210 ng per eye, all time points", "value": "below 1 ng/mL"}]}]}
